# In a melting point compilation (Tetko et al.; mined from patent text by program, amines drawn as free bases though some values may be those of a salt):
row,SMILES,melting point [°C]
1,Cc1oc(C=Cc2cccc(Cl)c2)nc1CCl,86 to 87
2,O=c1[nH]c2ncc(-c3ccc(-c4nnc[nH]4)cc3)nc2n1CCN1CCOCC1,295 to 297
3,"COCN1C(C)=C(C(=O)O)C(c2ccccc2C(F)(F)F)C(C(=O)OCOC(=O)C(C)(C)C)=C1C (single isomer, unassigned; (+))",69 to 70
4,CCS(=O)(=O)Nc1cc(C)cc(Cc2c[nH]cn2)c1C,167 to 169
5,Cc1ccccc1NC(=O)CN1CCN(c2ncccc2C#N)CC1,123 to 125
6,Cc1ccc(S(=O)(=O)ON=C2CCCc3c2ccc(OCc2ccccc2)c3N(C)C(=O)OCc2ccccc2)cc1,158 to 160
7,CC(=O)OC1CSC(Oc2cncc(-c3ccncc3C)c2)C(OC(C)=O)C1OC(C)=O (stereo unspecified),153 to 174
8,CCn1c(CCO)nc(N2CCc3ccccc3CC2)c(C#N)c1=O,114 to 115
9,c1ccc2c(c1)N[C@H]1CCNCC[C@@H]21 (relative stereo),102 to 114
10,COC1CCN(c2cc(NC(=O)OC(C)(C)C)c(NC(=O)CC(=O)c3cccc(C#N)c3)cc2C#Cc2ccccc2)CC1,97 to 100
11,N#Cc1c(N2CCN(C(=O)c3cccs3)CC2)c2cccnc2n(Cc2ccccc2)c1=O,263
12,CCOP(=O)(/C=C/c1cn(-c2ccccc2)nc1OCc1ccc(OCc2nc(-c3cccc(C(N)=O)c3)oc2C)c(OC)c1)OCC,127 to 128
13,CC(C)(C)OC(=O)N1CCCC(CCN2C(=O)C3(COc4cc5c(cc43)OCO5)c3ccccc32)C1 (stereo unspecified),64 to 67
14,O=C(NC1CCN(CCCOc2ccccc2-c2ncc(C(=O)O)c(O)n2)CC1)c1ccccc1,145 to 146
15,CC1(C)Nc2ccc3c(c2N1)C(=O)c1ccccc1C3=O,235 to 237
16,CC(C)(C)OC(=O)Nc1cc(OCC2COC(=O)O2)c(C#Cc2ccccc2)cc1NC(=O)CC(=O)c1cccc(C#N)c1 (racemic),181
17,CC1CC(C)CN(CCNc2ccnc3cc(Cl)ccc23)C1 (stereo unspecified),142 to 143
18,CC(C)(C)c1ccc(C(=O)Nc2ccc3oc4c(c3c2)CCCC4)cc1,185 to 186
19,COc1ccc(Cl)cc1C(=O)NC1COc2cc(C)ccc2C1O (stereo unspecified),151 to 152
20,COC(=O)NN=C(C)c1cc(Cl)ccc1NS(=O)(=O)C(F)(F)F,211 to 214
21,Oc1ccc(N=Nc2cccc(Cl)c2Cl)c(Cl)c1Cl,197 to 199
22,CON=Cc1cc(N=c2sc(=S)n3n2CCCC3)c(F)cc1Cl,128 to 133
23,CCCCCS(=O)(=O)NC(=O)/C=C/c1ccc(OCCC2OCCO2)cc1Oc1ncc(C(F)(F)F)cc1Cl,116 to 118
24,CCOC(=O)C1=C(C)N(C(C)=O)C(c2csc(C)n2)=NC1c1ccc(OC)cc1 (stereo unspecified),138 to 140
25,CCCc1nc(Cl)cc(NC)n1,30 to 40
26,COc1ccsc1CN=C(NC#N)Oc1ccccc1,170 to 171

row,SMILES,melting point [°C]
1,O=C(O)CCCCCCCOc1ccccc1O,60 to 64
2,O=C(O)c1cc(Cl)cc2c1[nH]c1ccccc12,245
3,CC(C)n1nc(-c2cnc3[nH]cc(C(=O)N[C@H](C)C(=O)N4CC(C#N)C4)c3n2)c2ccc(Cl)cc21,204 to 208
4,C=C(C)CN(c1ncnc2c1ncn2C1OC(CO)C(O)C1O)C1CCCCC1 (stereo unspecified),110 to 112
5,CC(C)(C)OC(=O)Nc1cnc(Cl)cc1C(=O)O,250
6,Cc1ccn(-c2ccc(C)c(C(=O)c3cccc4c3Nc3ncccc3CN4)c2)n1,138 to 140
7,COC(CNC(=S)N1CCN(c2ccc(O)cc2)CC1)OC,161
8,CSc1sc(C(N)=O)c2c1-c1oc(C)nc1CC2,> 300
9,O=c1c(-c2nnn[nH]2)coc2ccccc12,284 to 285
10,C#CCOC(C(=O)Nc1ccccc1-c1ccc(O)c(OC)c1)c1ccc(Cl)cc1 (stereo unspecified),140 to 142
11,CCc1c(CCNC(=O)CCCCC(=O)O)ccc(OC)c1OC,92 to 94
12,CN1CCCC(NC(=O)c2ccc3[nH]ncc3c2)C1 (stereo unspecified),228 to 229
13,Oc1ccc(I)nc1Cl,142 to 143
14,O=C(Nc1cnc2cnc(-c3ccc(O)cc3)nc2c1)c1ccncc1,230 to 232
15,CC(=O)NC(COC(F)F)C(=O)NCc1ccccc1 (stereo unspecified),173
16,CO[C@@H]1C=C(S(=O)(=O)c2ccccc2)[C@@H](C(C)C)CC1,113
17,CS(=O)(=O)NC(=O)C(Cc1ccc(OCc2ccccc2)cc1)NC(=O)c1cn2cc(-c3ccc(Cl)cc3)ccc2n1 (stereo unspecified),232
18,O=C(O)C1Cc2ccsc2S1(=O)=O (stereo unspecified),189 to 193
19,COC(=O)C(C)Nc1nc(Cl)ccc1[N+](=O)[O-] (stereo unspecified),113 to 114
20,Clc1cc(-c2ccc(CBr)c(Cl)c2)ccc1CBr,148 to 154
21,OCc1c(Cl)nc2ccccc2c1-c1ccc(F)cc1,159 to 160
22,COc1ccc(-n2c(C)nc3cnccc32)cc1OC1CCCC1,144 to 145
23,O=C(O)CS(=O)(=O)Oc1cccc(-c2cn3c(n2)sc2ccccc23)c1,156 to 158
24,COc1cc2c3c(c1)-c1c(O)cccc1CC3N(C)CC2 (stereo unspecified),214 to 215
25,CC(C)(C)NC(=O)CN1C(=O)C(NC(=O)Nc2cccc(Cl)c2)CC(C2CCCCC2)c2ccccc21 (stereo unspecified),223 to 226
26,FC(F)(F)c1cc(Cl)c(-n2ncc(-c3ncc[nH]3)n2)c(Cl)c1,282 to 283

row,SMILES,melting point [°C]
1,CN(O)C(=O)CCc1cc(-c2ccc(Cl)cc2)n(-c2ccccc2)n1,155 to 156
2,COc1ccc(/C=C/C(=O)N2CC(CCl)c3c2cc(O)c2ncccc32)cc1O (stereo unspecified),215 to 218
3,COC(=O)CCCCCNC(=O)C(CO)NS(=O)(=O)c1ccc(Cl)cc1 (racemic),83 to 86
4,C=C(CN1C(=O)c2ccccc2C1=O)c1ccccc1,118 to 121
5,COC1CCC(O)C(COS(=O)(=O)c2ccc(C)cc2)O1 (stereo unspecified),100 to 102
6,CCCCCCCCc1c(C)[nH]c(C)c(I)c1=O,224 to 226
7,CCOC(=O)Cc1ccc2oc(-c3ccc(Cl)cc3)nc2c1,81 to 82
8,N#CC(=NO)c1cccnc1,234 to 238
9,N#Cc1ccc(NCC(F)(F)F)cc1C(F)(F)F,132 to 134
10,CS(=O)(=O)Oc1ccc(-c2c3ccccc3c(I)c3sc4ccccc4c23)cc1,176 to 186
11,CC(=O)NC1(CNS(=O)(=O)c2ccccc2)CCN(C(=O)OC(C)(C)C)CC1,226 to 227
12,NCCNc1ccc2ncc(Br)n2n1,158 to 159
13,CNC(=O)n1nc(Oc2ncc(C(F)(F)F)cc2Cl)c(C)c1C,117 to 118
14,CCOC(=O)C=C1CSC(=N)N1N,135 to 137
15,CCCc1c(OC(=S)N(C)C)ccc2c(C)c(CC(=O)OC)c(=O)oc12,172 to 173
16,COC1=CCC2=C(CCC3C2CCC2(C)C(=O)CCC32)C1 (stereo unspecified),106 to 110
17,CO/C=C(/C(=O)OC)c1csc(C(=O)c2ccccc2)c1,82 to 84
18,CCn1c(C)nc(N2CCc3nc(N)sc3CC2)c([N+](=O)[O-])c1=O,> 200
19,CN(C)C=Nc1ccncc1O,121 to 123
20,CCC(=O)c1cc2ccccc2s1,79 to 81
21,COc1cccc(Oc2c(NS(=O)(=O)c3ccc(C(C)(C)C)cc3)ncnc2OCc2ccccn2)c1,206 to 208
22,Cc1nc2[nH]c3ccccc3c2c(N)c1C(N)=O,305 to 308
23,COc1ccc(C(=O)c2ccccn2)cc1CCl,92 to 94
24,CC(C)(C)C(=O)Nc1ccc(F)cc1-c1ccc(Cl)c(Cl)c1,130 to 131
25,OCCCc1nc2ccccn2n1,71.5 to 73
26,Cc1ccc(OCC(O)CNC(C)(C)C)c(C2=NNC(=O)CC2)c1 (stereo unspecified),126 to 128

row,SMILES,melting point [°C]
1,O=Cc1ccc(OC(F)F)c2oc3ccncc3c12,215 to 217
2,CC(C)(C)S(=O)(=O)CC(Cc1ccccc1)C(=O)O (stereo unspecified),147 to 148
3,CC(CCC(=O)O)c1ccc2c(c1)C(=O)c1ccccc1CO2 (stereo unspecified),120 to 124
4,CC(Cc1ccc(Cl)cc1Cl)NC(=O)c1ccccc1C(F)(F)F (stereo unspecified),142
5,c1ccc(-c2cc(-c3nc(-c4ccccc4)nc(-c4ccccc4)n3)c(-c3nccc4ccccc34)c(-c3cc4ccccc4c4ccccc34)c2)cc1,272
6,O=C(O)c1cccc(Oc2ccc(O)cc2)c1,163 to 166
7,O=c1c(Cl)cc2nc3ccc(F)cc3sc-2c1Cl,256 to 258
8,Cn1cnnc1C(c1ccc(Cl)cc1)c1ccc2c(c1)c(-c1cccc(Cl)c1)nc1nnnn12 (stereo unspecified),217
9,N#Cc1cccc2c(O)c(C(=O)NCc3ccc(Cl)cc3)cnc12,287 to 289
10,CC(=O)Nc1ccc(C#CCCN2CC=C(c3ccccc3)CC2)nc1,158 to 160
11,OC(c1ccccc1)(c1cccc(Cl)c1)c1ncc[nH]1 (stereo unspecified),174 to 175
12,Cc1ccc([C@@H]2c3c(C)c(N4CCC(c5ccccc5)CC4)c(C)c(C)c3OC2(C)C)cc1,137 to 140
13,CN(C)c1noc(-c2ccc3c(c2)c2cc(-c4ccc(Cl)cc4Cl)c(=O)n(C)c2n3C)n1,320 to 324
14,COc1ccc(-n2nc(C)c3c(C(=O)Nc4c(C)ccnc4C)cc(C)nc32)cc1,224 to 227
15,O=C(CS(=O)(=O)c1ccccc1)c1ccccn1,101 to 103
16,CS(=O)(=O)c1cc(O)ccc1/C=C/c1ccc(O)cc1,244 to 245
17,COc1ccc(-c2nc(SCCO)sc2-c2ccc(OC)cc2)cc1,83 to 84
18,CSc1cccc(-c2ccccc2[N+](=O)[O-])c1,42 to 43
19,Cc1ccccc1OCC1NCCS1 (stereo unspecified),66 to 68
20,CCOC(=O)N1C=CC(c2c(-c3ccc(OC)cc3)nc3n2CCC3)C=C1,116 to 118
21,CCN1C(=O)C(C)=C2C[C@@]3(C)C(=C[C@@H](OC)[C@H](O)[C@@H]3C)C=C21,151 to 154
22,CN1CCN(C2=Nc3ccccc3-n3ccc4cc(Br)cc2c43)CC1,157 to 159
23,C=C(C)n1c(=O)n(-c2ccc(CCNC[C@H](O)COc3ccc(O)cc3)cc2)c2ncccc21,62 to 64
